Assay [1] has as its target Beta-2 adrenergic receptor (Homo sapiens, UniProt P07550). The assay can be described thus: beta2AR agonists driving receptor internalization, dose response, cell-based, FAP fluorogen, flow cytometry, cherry pick 1 (AID 588763). In kind it is functional. A general note: A flow cytometer gives signals particle by particle.
A further assay concerns the target T1, Hexokinase-1 (Homo sapiens, UniProt P19367).
T1 sequence (P19367 whole entry): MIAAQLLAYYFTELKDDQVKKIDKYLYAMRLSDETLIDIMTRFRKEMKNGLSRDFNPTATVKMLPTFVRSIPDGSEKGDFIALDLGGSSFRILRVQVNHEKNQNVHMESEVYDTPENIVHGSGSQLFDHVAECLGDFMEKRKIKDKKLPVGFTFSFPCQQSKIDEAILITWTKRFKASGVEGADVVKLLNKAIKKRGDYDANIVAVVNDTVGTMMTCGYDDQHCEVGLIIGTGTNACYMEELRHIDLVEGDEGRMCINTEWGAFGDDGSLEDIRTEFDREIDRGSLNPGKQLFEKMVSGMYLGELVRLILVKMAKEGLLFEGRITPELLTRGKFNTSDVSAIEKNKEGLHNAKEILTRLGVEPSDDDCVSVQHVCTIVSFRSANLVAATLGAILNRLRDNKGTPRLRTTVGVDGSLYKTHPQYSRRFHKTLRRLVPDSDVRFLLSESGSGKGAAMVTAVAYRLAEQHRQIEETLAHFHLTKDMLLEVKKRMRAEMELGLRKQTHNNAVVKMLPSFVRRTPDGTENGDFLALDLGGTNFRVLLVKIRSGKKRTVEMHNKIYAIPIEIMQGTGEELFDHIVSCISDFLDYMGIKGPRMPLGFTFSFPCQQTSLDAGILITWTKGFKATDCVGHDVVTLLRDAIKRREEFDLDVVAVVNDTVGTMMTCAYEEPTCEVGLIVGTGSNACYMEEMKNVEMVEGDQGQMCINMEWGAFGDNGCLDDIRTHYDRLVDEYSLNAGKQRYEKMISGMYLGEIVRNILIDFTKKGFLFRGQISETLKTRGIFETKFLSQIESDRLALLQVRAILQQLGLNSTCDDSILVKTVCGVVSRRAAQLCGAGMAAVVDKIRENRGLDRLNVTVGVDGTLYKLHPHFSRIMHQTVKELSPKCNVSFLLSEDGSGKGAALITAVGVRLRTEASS
The assay is described as follows: SAR analysis of small molecule inhibitors of hexokinase domain containing I (HKDC1) in the hexokinase 1 selectivity assay. [Related pubchem assays (depositor defined):AID493160, AID493190]. Format: functional.

A further assay concerns the target T2, Hexokinase HKDC1 (Homo sapiens, UniProt Q2TB90).
T2 sequence (Q2TB90 whole entry): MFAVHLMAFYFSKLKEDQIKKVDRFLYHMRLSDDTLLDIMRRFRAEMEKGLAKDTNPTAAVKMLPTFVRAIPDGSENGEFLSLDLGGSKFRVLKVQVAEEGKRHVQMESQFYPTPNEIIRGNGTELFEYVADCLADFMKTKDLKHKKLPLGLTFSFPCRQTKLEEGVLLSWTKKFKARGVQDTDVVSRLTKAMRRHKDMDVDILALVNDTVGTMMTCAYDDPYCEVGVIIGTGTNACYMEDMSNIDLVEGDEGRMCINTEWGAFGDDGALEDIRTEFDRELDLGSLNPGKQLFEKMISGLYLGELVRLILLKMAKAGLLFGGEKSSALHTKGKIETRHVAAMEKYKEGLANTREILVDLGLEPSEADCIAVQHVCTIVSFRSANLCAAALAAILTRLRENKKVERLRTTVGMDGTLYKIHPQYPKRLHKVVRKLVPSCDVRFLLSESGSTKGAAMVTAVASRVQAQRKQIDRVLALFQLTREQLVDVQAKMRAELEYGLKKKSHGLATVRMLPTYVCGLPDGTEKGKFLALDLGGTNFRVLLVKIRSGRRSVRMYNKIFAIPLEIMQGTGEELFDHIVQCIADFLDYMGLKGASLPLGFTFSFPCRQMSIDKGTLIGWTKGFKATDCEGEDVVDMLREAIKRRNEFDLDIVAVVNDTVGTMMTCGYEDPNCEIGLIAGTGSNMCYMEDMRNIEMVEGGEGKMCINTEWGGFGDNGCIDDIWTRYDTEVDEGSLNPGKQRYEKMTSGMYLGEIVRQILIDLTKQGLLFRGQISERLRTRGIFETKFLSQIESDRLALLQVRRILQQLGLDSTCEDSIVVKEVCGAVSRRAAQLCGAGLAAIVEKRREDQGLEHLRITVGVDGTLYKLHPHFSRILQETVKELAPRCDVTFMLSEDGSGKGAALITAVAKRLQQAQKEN
The assay is described as follows: SAR analysis of small molecule inhibitors of hexokinase domain containing I (HKDC1). [Related pubchem assays (depositor defined):AID493160, AID493190]. In kind it is functional.

For assay [2], the system named is HEK293. The assay can be described thus: SAR Analysis of small molecule inhibitors of B-cell specific antigen receptor-induced NF-kB activation in a HEK-293T cell line using a luminescence assay - Set 2. [Related pubchem assays (depositor defined):AID435022, AID435025, AID489021]. Format: functional, cell-based. The note with it: Homo sapiens.
Assay [3] deals with HEK293. The assay is described as follows: cytotoxicity in HEK293T NF-kB-Luc cells, SAR follow-up, cytotoxicity control for NF-kB activator project, cell-based, resazurin fluorescence (AID 493251). In kind it is functional. The note with it: Homo sapiens. (In general: Resazurin is reduced to fluorescent resorufin, in cell work by metabolically active cells.)
For a further assay, the system named is Jurkat. The assay is described as follows: SAR Analysis of small molecule inhibitors of […] specific antigen receptor-induced NF-kB activation in a Jurkat cell line using a luminescence assay - Set 3. [Related pubchem assays (depositor defined):AID435022, AID435025, AID465]. Format: functional, cell-based. The note with it: Homo sapiens.
The target in assay [4] is T3, Sentrin-specific protease 6 (Homo sapiens, UniProt Q9GZR1).
T3 sequence (Q9GZR1 whole entry): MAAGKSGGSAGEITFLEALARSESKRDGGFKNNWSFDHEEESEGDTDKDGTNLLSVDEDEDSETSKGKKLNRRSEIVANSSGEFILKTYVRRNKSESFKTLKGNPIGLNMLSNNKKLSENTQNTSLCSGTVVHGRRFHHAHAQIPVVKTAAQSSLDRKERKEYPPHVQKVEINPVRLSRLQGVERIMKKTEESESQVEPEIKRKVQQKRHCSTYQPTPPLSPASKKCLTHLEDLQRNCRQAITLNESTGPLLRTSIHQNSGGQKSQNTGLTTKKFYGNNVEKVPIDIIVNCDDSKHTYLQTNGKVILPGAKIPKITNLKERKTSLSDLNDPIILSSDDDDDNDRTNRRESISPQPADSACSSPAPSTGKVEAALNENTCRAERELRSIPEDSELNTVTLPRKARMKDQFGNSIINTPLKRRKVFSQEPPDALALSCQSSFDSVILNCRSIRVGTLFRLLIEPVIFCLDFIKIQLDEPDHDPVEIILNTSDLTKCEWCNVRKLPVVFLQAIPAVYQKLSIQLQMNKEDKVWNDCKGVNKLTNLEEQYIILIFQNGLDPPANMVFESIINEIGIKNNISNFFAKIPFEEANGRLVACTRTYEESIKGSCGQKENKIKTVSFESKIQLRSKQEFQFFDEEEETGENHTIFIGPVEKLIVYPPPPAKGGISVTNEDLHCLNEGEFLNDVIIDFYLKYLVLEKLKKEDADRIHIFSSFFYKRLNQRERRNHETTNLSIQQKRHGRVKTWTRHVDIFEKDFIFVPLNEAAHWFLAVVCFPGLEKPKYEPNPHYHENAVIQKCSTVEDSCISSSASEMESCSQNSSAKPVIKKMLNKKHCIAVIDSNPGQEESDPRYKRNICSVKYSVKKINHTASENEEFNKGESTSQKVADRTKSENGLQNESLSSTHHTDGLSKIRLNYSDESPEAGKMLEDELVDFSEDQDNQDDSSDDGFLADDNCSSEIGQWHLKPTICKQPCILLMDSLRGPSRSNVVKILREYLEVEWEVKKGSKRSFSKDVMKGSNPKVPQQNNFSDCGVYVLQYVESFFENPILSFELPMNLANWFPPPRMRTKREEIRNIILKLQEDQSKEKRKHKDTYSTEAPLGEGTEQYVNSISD
The assay can be described thus: SENP6 protease inhibitors, SAR follow-up, biochemical, luminescence, set 2 (AID 588598). In kind it is functional.

Assay [5] addresses T4, Sentrin-specific protease 7 (Homo sapiens, UniProt Q9BQF6).
T4 sequence (Q9BQF6 whole entry): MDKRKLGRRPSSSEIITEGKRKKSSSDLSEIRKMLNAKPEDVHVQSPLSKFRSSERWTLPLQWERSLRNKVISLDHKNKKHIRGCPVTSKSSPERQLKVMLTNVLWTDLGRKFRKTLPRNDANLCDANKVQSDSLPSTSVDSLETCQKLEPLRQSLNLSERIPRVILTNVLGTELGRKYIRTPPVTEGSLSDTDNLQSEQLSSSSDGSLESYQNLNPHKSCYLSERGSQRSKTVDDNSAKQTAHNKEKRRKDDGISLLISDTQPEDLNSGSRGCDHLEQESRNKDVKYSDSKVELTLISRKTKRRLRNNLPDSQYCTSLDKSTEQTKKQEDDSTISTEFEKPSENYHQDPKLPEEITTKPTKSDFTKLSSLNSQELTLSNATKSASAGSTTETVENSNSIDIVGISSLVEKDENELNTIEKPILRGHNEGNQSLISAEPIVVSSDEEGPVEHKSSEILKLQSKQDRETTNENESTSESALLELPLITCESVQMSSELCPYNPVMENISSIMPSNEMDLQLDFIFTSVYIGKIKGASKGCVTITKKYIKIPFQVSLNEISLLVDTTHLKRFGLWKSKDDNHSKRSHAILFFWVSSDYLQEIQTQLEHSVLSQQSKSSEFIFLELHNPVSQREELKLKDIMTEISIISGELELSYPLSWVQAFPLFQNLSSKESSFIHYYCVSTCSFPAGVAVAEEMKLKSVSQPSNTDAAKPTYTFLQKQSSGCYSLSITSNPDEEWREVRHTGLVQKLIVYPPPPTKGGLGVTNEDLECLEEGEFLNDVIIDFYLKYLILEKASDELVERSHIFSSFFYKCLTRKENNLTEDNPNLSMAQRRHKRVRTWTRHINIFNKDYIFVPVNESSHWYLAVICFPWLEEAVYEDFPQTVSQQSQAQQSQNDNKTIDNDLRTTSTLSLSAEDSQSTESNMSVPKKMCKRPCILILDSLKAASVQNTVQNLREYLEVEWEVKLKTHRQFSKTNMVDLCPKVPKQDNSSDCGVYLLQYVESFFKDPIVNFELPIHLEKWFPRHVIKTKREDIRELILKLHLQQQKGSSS
The assay is described as follows: SENP7 protease inhibitors, SAR follow-up, biochemical, luminescence, set 2 (AID 588600). In kind it is functional.

The target of a further assay is T5, Caspase-3 (Homo sapiens, UniProt P42574).
T5 sequence (P42574 whole entry): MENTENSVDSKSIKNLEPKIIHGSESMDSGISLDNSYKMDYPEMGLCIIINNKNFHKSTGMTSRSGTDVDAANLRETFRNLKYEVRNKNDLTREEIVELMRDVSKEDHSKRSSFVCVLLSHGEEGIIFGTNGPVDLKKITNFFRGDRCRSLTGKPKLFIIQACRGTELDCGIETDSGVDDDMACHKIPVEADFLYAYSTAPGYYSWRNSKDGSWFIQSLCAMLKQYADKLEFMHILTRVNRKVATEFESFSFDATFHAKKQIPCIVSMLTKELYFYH
The assay can be described thus: caspase-3 inhibitors as off-family protease, SAR follow-up, selectivity assay for SENP protease inhibitor project, biochemical, luminescence, set 2 (AID 588599). Format: functional.

In assay [6] the target is T6, Sentrin-specific protease 8 (Homo sapiens, UniProt Q96LD8).
T6 sequence (Q96LD8 whole entry): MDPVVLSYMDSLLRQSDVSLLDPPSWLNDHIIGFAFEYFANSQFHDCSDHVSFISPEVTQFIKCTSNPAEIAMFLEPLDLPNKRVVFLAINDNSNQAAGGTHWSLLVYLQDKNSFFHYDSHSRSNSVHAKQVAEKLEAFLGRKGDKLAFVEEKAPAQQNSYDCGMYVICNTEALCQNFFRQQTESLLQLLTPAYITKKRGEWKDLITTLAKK
The assay can be described thus: SENP8 protease inhibitors, SAR follow-up, biochemical, luminescence, set 2 (AID 588601). Format: functional.

For assay [7], the target named is T7, Phospholipase D2 (Homo sapiens, UniProt O14939). The assay is described as follows: PLD2 inhibitor potency in cells, dose response (AID 602147).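 Note: cellular assay in HEK293 cells overexpressing GFP-tagged PLD2.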 In kind it is functional.
For assay [8], the target named is T7, Phospholipase D2. The assay is described as follows: PLD2 purified enzyme concentration response. [Related pubchem assays (depositor defined):AID588854]. In kind it is functional.
The target in a further assay is Phospholipase D1 (Homo sapiens, UniProt Q13393). The assay can be described thus: PLD1 purified enzyme concentration response. [Related pubchem assays (depositor defined):AID588854]. Format: functional.

Calls of active or inactive are those of the source. A value given as a limit tells only on which side of the number the result lay.

T7 sequence (O14939 whole entry): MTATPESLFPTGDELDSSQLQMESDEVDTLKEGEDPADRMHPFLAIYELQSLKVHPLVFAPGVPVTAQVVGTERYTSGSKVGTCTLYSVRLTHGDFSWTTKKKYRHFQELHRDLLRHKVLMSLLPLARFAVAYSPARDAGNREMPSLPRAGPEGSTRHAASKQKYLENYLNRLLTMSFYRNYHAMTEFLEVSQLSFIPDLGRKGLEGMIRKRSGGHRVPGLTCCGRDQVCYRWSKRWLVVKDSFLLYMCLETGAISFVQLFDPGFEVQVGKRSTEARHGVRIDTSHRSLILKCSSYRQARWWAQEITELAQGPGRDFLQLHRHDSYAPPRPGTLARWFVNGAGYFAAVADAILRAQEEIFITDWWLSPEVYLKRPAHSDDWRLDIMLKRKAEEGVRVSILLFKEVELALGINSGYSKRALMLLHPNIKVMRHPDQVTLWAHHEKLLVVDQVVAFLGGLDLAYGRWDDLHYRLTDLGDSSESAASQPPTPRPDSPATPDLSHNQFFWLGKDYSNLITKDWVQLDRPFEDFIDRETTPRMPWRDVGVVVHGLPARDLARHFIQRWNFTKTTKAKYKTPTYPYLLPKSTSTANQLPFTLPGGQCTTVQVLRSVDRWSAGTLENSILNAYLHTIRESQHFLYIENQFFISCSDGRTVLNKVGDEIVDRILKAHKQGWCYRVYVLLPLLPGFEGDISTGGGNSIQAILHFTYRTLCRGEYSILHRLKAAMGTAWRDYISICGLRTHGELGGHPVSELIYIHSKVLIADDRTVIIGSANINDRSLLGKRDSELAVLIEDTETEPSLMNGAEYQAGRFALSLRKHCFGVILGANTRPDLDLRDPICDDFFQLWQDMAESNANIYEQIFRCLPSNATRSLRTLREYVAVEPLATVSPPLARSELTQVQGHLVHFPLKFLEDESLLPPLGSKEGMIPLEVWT
Phospholipase D1, sequence (Q13393 whole entry): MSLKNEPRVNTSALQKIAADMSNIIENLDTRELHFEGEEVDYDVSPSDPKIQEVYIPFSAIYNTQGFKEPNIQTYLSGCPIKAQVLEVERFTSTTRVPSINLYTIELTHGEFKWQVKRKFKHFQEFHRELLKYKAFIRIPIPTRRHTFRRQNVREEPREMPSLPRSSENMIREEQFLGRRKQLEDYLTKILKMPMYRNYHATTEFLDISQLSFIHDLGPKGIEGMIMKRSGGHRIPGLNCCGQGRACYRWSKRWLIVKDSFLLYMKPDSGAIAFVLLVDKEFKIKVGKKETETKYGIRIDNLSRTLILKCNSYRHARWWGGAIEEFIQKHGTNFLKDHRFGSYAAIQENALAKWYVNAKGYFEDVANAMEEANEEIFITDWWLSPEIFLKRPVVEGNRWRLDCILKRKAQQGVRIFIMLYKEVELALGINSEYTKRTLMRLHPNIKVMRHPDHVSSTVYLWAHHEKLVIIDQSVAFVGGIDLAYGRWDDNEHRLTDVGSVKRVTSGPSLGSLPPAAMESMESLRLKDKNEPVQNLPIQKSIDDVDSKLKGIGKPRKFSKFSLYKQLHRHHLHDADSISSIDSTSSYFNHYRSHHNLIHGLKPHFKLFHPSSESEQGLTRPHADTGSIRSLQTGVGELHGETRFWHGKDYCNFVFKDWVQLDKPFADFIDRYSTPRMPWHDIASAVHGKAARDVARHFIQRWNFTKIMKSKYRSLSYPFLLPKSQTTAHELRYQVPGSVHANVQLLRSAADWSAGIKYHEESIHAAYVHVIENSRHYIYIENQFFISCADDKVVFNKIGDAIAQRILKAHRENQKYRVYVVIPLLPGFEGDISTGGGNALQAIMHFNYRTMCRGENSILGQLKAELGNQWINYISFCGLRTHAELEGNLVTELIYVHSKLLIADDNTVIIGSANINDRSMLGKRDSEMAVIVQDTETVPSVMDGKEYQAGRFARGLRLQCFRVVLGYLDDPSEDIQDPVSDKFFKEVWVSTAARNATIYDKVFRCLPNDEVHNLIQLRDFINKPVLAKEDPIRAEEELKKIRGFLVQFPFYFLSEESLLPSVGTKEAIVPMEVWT
Beta-2 adrenergic receptor, sequence (P07550 whole entry): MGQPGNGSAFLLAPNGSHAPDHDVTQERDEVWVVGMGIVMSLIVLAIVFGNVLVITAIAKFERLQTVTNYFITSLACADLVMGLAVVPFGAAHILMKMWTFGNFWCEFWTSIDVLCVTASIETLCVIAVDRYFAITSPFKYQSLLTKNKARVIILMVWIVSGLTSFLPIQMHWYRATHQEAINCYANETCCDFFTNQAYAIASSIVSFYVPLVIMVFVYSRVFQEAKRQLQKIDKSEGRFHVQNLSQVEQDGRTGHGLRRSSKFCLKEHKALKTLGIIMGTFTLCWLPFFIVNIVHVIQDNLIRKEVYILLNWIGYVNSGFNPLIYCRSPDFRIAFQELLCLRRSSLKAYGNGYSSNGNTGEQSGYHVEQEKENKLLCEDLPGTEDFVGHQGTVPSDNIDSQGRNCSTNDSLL

`O=C(CCCCCn1c(=O)[nH]c2ccsc2c1=O)NCc1ccc2c(c1)OCO2`: the concentration giving a half-maximal response (EC50) (as a rule, the concentration giving half of the maximal effect) in assay [1] was 0.0393 µM (active).
On to `O=c1c2ccccc2nc(/C=C/c2ccccc2)n1-c1ccccc1`, for which the IC50 at Hexokinase-1 and at Hexokinase HKDC1 was > 80 µM (inactive) each time.
For `CCOc1ccc(-c2nc(CSCC(=O)NCc3ccccc3)c(C)o2)cc1`, the values for the IC50 with HEK293 [2], in the assay with HEK293 [3] and in the assay on Jurkat were 21.6 µM (inactive), 49.3 µM (inactive) and > 80 µM (inactive), respectively.
`CCCN(CCC)S(=O)(=O)c1ccc2[nH]cc(/C=N/NC(=S)Nc3ccc(F)c(Cl)c3)c2c1`: the IC50 (in [4]; in assay [5]; on Caspase-3; in assay [6]) was > 99 µM (inactive) in each case.
With `O=C(NCCN1CCC2(CC1)C(=O)NCN2c1ccc(F)cc1)c1cc2cc(F)ccc2[nH]1`, the IC50 (usually the point on the concentration scale where inhibition reaches its midpoint) on Phospholipase D2 [7] was 0.027 µM (active); at Phospholipase D2 [8], 0.066 µM (active); on Phospholipase D1, 5.5 µM (active).

Source of the values: ChEMBL document CHEMBL1201862, “PubChem BioAssay data set” (2004).
